In PubChem BioAssay (NCI):
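Assay format: 96-well plates, 48-hour exposure. GI50 is the concentration that inhibits growth by half. TGI denotes the concentration required for complete inhibition of growth.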

Assays:
Experiment in all cases: NCI tumour cell line growth inhibition, 48 h
A498 renal = system: A498 renal
KM12 colon = system: KM12 colon
MCF7 breast = system: MCF7 breast
NCI-H226 lung = system: NCI-H226 lung
NCI-H522 lung = system: NCI-H522 lung
OVCAR-3 ovarian = system: OVCAR-3 ovarian
SF-268 CNS = system: SF-268 CNS
SF-295 CNS = system: SF-295 CNS
SF-539 CNS = system: SF-539 CNS
SK-MEL-28 melanoma = system: SK-MEL-28 melanoma

Structure (SMILES) | TGI (A498 renal) | TGI (KM12 colon) | TGI (MCF7 breast) | TGI (NCI-H226 lung) | TGI (NCI-H522 lung) | TGI (OVCAR-3 ovarian) | TGI (SF-268 CNS) | TGI (SF-295 CNS) | TGI (SF-539 CNS) | TGI (SK-MEL-28 melanoma) | GI50 (A498 renal) | GI50 (KM12 colon) | GI50 (MCF7 breast) | GI50 (NCI-H226 lung) | GI50 (NCI-H522 lung) | GI50 (OVCAR-3 ovarian) | GI50 (SF-268 CNS) | GI50 (SF-295 CNS) | GI50 (SF-539 CNS) | GI50 (SK-MEL-28 melanoma)
CCCCCCCCCCCCCCCC(=O)OCC1OC(OC)C2NP(=O)(N(CCCl)CCCl)OC1C2O (stereo not given) | 34.7 µM | 41.9 µM | 20.5 µM | 32.2 µM | 3.42 µM | 10.7 µM | 14.8 µM | > 41.8 µM | 7.29 µM | 61.1 µM | – | – | – | – | – | – | – | – | – | –
Cc1cc(C(=O)O)c(C)n1-c1cccc(C(=O)O)c1 | > 100 µM | > 100 µM | > 100 µM | > 100 µM | > 100 µM | > 100 µM | > 100 µM | > 100 µM | > 100 µM | > 100 µM | > 100 µM | > 100 µM | > 100 µM | > 100 µM | > 100 µM | > 100 µM | > 100 µM | > 100 µM | > 100 µM | > 100 µM
COC(=O)/C=C1/SC(N2N=C(c3cccs3)CC2c2ccc(F)cc2)=NC1=O (stereo not given) | 6.26 µM | 3.78 µM | 8.06 µM | 6.32 µM | 4.79 µM | 5.27 µM | 12.6 µM | 13.5 µM | 3.39 µM | 6 µM | 1.81 µM | 1.92 µM | 2.34 µM | 2.24 µM | 2.15 µM | 2.19 µM | 2.95 µM | 3.24 µM | 1.86 µM | 2.61 µM
C/C(=N\NC(=S)N1CCCCCCCCCCCC1)c1ccccn1 | 1.32 µM | 1.52 µM | 0.674 µM | 1.02 µM | 0.408 µM | 1.48 µM | 2.01 µM | 1.01 µM | 0.846 µM | 2.02 µM | – | – | – | – | – | – | – | – | – | –
COC(=O)C(CBr)CBr | 31.8 µM | 24.3 µM | 20.6 µM | 28.1 µM | 4.76 µM | 7.09 µM | 41.9 µM | 31.1 µM | 13.2 µM | 9.36 µM | – | – | – | – | – | – | – | – | – | –
Cc1[nH]nc2c1N=C(c1ccccc1F)c1cc(C(N)=O)ccc1N2 | 6.02 µM | > 16.3 µM | > 20 µM | 6.38 µM | > 19.6 µM | > 20.1 µM | 8.46 µM | 24.9 µM | 3.54 µM | > 24.1 µM | 1.08 µM | 1.32 µM | 0.592 µM | 0.852 µM | 2.19 µM | 2.14 µM | 2.22 µM | 1.28 µM | 0.621 µM | 5.79 µM
CCOC(=O)c1c(C)nc2c(c1N)CC(=O)N2CCc1ccccc1 | 10.8 µM | 15.5 µM | 17.1 µM | 69 µM | 1.11 µM | 13.3 µM | 19 µM | 33.1 µM | 11.9 µM | 12.1 µM | 3.2 µM | 0.35 µM | 0.306 µM | 18.7 µM | 0.283 µM | 0.412 µM | 0.477 µM | 2.16 µM | 0.324 µM | 2.35 µM
Cc1ccn2c(CCc3nnc4cc(C)ccn34)nnc2c1 | > 100 µM | > 100 µM | > 100 µM | > 100 µM | > 100 µM | > 100 µM | > 100 µM | > 100 µM | > 100 µM | > 100 µM | – | – | – | – | – | – | – | – | – | –
COc1ccc2c(Cl)cc(NC(=O)Nc3c(C)cccc3C)nc2c1 | 22.4 µM | > 100 µM | > 100 µM | 6.14 µM | > 100 µM | > 100 µM | > 100 µM | 43.9 µM | 46.3 µM | > 100 µM | 2.9 µM | 35.7 µM | 56 µM | 2.29 µM | > 100 µM | 23.5 µM | 39.7 µM | 4.31 µM | 19.8 µM | 31 µM
Cc1ccc(C(SCC(N)C(=O)O)(c2ccccc2)c2ccccc2)cc1 (stereo not given) | > 64.7 µM | 5.98 µM | > 79.1 µM | 42.9 µM | 85.1 µM | 0.158 µM | 31.9 µM | > 100 µM | 1.08 µM | > 100 µM | 1.02 µM | 0.0983 µM | 0.0324 µM | 9.29 µM | 0.0403 µM | 0.0391 µM | 0.0612 µM | 0.0465 µM | 0.033 µM | 6.5 µM
N#Cc1c(N)nc(N)nc1N[C@H](c1nc2c(F)ccc(Cl)c2c(=O)n1-c1cccnc1)C1CC1 | 1.55 µM | 34.5 µM | > 100 µM | > 100 µM | > 100 µM | 16.3 µM | > 100 µM | 13.2 µM | 21 µM | > 100 µM | 0.249 µM | 14.4 µM | 2.04 µM | 15.5 µM | 34.2 µM | 1.47 µM | 12.3 µM | 1.18 µM | 3.83 µM | 7.23 µM
CN1CCN(c2nc(NCCCNc3ccnc4cc(Cl)ccc34)c3ccccc3n2)CC1 | 25.6 µM | 16.1 µM | 13.2 µM | 41.4 µM | 7.7 µM | 21.6 µM | 19.2 µM | 4.92 µM | 3.5 µM | 4.22 µM | 12.9 µM | 4.02 µM | 2.37 µM | 18.9 µM | 3.24 µM | 6.93 µM | 4.71 µM | 2.05 µM | 1.74 µM | 2.17 µM
Cc1ccc(C2=C(c3ccc(C)cc3)C3(c4ccc(C)cc4)C4C(=O)c5ccccc5C(=O)C4C2(c2ccc(C)cc2)S3=O)cc1 (stereo not given) | > 100 µM | > 100 µM | > 100 µM | > 100 µM | > 100 µM | > 100 µM | > 100 µM | > 100 µM | > 100 µM | > 100 µM | > 100 µM | > 100 µM | > 100 µM | > 100 µM | > 100 µM | > 100 µM | > 100 µM | > 100 µM | > 100 µM | 60.6 µM
C=C(CC(=O)O)C(=O)O (tested in a mixture with another compound) | > 50 µg/mL | > 50 µg/mL | > 50 µg/mL | > 50 µg/mL | > 50 µg/mL | > 50 µg/mL | > 50 µg/mL | > 50 µg/mL | > 50 µg/mL | > 50 µg/mL | > 50 µg/mL | > 50 µg/mL | > 50 µg/mL | > 50 µg/mL | > 50 µg/mL | > 50 µg/mL | > 50 µg/mL | > 50 µg/mL | > 50 µg/mL | > 50 µg/mL
